Measured values reported in ChEMBL document CHEMBL2057151, “Synthesis and structure-activity relationships of pyrido[3,2-b]pyrazin-3(4H)-ones and pteridin-7(8H)-ones as corticotropin-releasing factor-1 receptor antagonists” (Bioorg Med Chem Lett, 2012).

Assays:
[1] = Fraction unbound in rat plasma; assay type: ADME, cell-free
[2] = target: T1, Corticotropin-releasing factor receptor 1 (Rattus norvegicus, UniProt P35353); test: Antagonist activity at rat CFR1R; assay type: functional
T1 sequence (P35353 whole entry): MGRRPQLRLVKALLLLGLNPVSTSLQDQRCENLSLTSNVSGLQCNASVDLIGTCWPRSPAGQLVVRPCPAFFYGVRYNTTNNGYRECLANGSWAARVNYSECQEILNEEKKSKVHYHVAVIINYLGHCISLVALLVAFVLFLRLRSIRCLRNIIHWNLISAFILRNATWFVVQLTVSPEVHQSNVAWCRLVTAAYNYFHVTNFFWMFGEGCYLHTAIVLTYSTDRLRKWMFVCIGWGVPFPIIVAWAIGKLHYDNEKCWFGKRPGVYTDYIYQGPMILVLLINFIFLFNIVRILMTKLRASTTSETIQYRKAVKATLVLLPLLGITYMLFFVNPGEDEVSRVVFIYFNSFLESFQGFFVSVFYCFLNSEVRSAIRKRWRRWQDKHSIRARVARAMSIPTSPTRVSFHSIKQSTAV

[3] = Half life in rat at 0.5 mg/kg, iv; assay type: ADME, organism-based; design: dose 0.5 mg/kg, route intravenous; details: in vivo
[4] = Volume of distribution at steady state in rat at 0.5 mg/kg, iv and 1.5 mg/kg, po; assay type: ADME, organism-based; details: in vivo, read-out: Vdss
Rattus norvegicus = test: AUC in rat at 1.5 mg/kg, po; assay type: ADME, organism-based, Plasma; design: dose 1.5 mg/kg, route oral; details: in vivo
[5] = Clearance in rat at 0.5 mg/kg, iv and 1.5 mg/kg, po; assay type: ADME, organism-based; details: in vivo

Molecule `COc1ccc(-c2ncnc3c2nc(C)c(=O)n3C(C2CC2)C2CC2)c(C)c1` has a fraction unbound [1] of 0.014 and an IC50 [2] of 37 nM.

Work on `CCC(COC)n1c(=O)c(C)nc2c(-c3cc(F)c(OC)cc3Cl)ncnc21` (stereo not given) yielded a fraction unbound [1] of 0.014 and an IC50 [2] of 16 nM.

Work on `COCC(C1CC1)n1c(=O)c(C)nc2c(-c3cc(F)c(OC)cc3Cl)ncnc21` (stereo not given) yielded a half-life [3] of 2 h, a Vd [4] of 2.05 L/kg and an AUC (Rattus norvegicus) of 0.3 µM·h. It also gave a fraction unbound [1] of 0.028, an IC50 [2] of 7.5 nM and a clearance [5] of 33.7 mL/min/kg.

Work on `CC[C@@H](C1CC1)n1c(=O)c(C)nc2c(-c3ccc(Cl)cc3Cl)nccc21` yielded an IC50 [2] of 55 nM.

Work on `CC[C@H](COC)n1c(=O)c(C)nc2c(-c3ccc(Cl)cc3Cl)nccc21` yielded an IC50 [2] of 150 nM.

`COc1ccc(-c2ccnc3c2nc(C)c(=O)n3C(C2CC2)C2CC2)c(C)c1` showed a fraction unbound [1] of 0.03 and an IC50 [2] of 3 nM.

For `CCC(COC)n1c(=O)c(C)nc2c(-c3cc(F)c(OC)cc3Cl)ccnc21` (stereo not given), the fraction unbound [1] was 0.03 and the IC50 [2] was 2.1 nM.

`COCC(C1CC1)n1c(=O)c(C)nc2c(-c3cc(F)c(OC)cc3Cl)ccnc21` (stereo not given) showed a fraction unbound [1] of less than 0.002 and an IC50 [2] of 1.5 nM.

Work on `CCC(COC)n1c(=O)c(C)nc2c(-c3cc(Cl)c(OC)cc3C)ccnc21` (stereo not given) yielded a half-life [3] of 5.8 h, a Vd [4] of 1.8 L/kg and an AUC (Rattus norvegicus) of 8.5 µM·h. For the same molecule, the clearance [5] was 9.5 mL/min/kg.

`Cc1nc2c(-c3ccc(Cl)cc3Cl)ccnc2n(CC(C)C)c1=O` gave an IC50 [2] of 3500 nM.

Molecule `Cc1nc2c(-c3ccc(Cl)cc3Cl)ccnc2n(C(C)C(C)C)c1=O` (stereo not given) has an IC50 [2] of 380 nM.

Work on `CCCC(C)n1c(=O)c(C)nc2c(-c3ccc(Cl)cc3Cl)ccnc21` (stereo not given) yielded an IC50 [2] of 62 nM.

`CC[C@H](C1CC1)n1c(=O)c(C)nc2c(-c3ccc(Cl)cc3Cl)ccnc21` showed an IC50 [2] of 8.2 nM.

In the case of `CC[C@@H](C1CC1)n1c(=O)c(C)nc2c(-c3ccc(Cl)cc3Cl)ccnc21`, the fraction unbound [1] is reported as 0.002 and the IC50 [2] is reported as 7.4 nM.

For `CCCC(C1CC1)n1c(=O)c(C)nc2c(-c3ccc(Cl)cc3Cl)ccnc21` (stereo not given), the IC50 [2] was 4.3 nM.

`COCC(C)n1c(=O)c(C)nc2c(-c3ccc(Cl)cc3Cl)ccnc21` (stereo not given) gave an IC50 [2] of 63 nM.

Work on `CC[C@H](COC)n1c(=O)c(C)nc2c(-c3ccc(Cl)cc3Cl)ccnc21` yielded a fraction unbound [1] of 0.004 and an IC50 [2] of 4 nM.

`CC[C@@H](COC)n1c(=O)c(C)nc2c(-c3ccc(Cl)cc3Cl)ccnc21` showed an IC50 [2] of 74 nM.

For `CC[C@@H](C1CC1)n1c(=O)c(C)nc2c(-c3ccc(C(F)(F)F)cc3Cl)ccnc21`, the IC50 [2] was 21 nM.

With `CC[C@@H](C1CC1)n1c(=O)c(C)nc2c(-c3ccc(OC(F)F)cc3Cl)ccnc21` the IC50 [2] was 7.3 nM.

`CC[C@@H](C1CC1)n1c(=O)c(C)nc2c(-c3ccc(OC)cc3Cl)ccnc21` gave an IC50 [2] of 4 nM.

With `CC[C@H](C1CC1)n1c(=O)c(C)nc2c(-c3ccc(OC)cc3Cl)ccnc21` the IC50 [2] was 4.5 nM.

Work on `CC[C@H](C1CC1)n1c(=O)c(C)nc2c(-c3cc(Cl)c(OC)cc3C)ccnc21` yielded an IC50 [2] of 4.5 nM.

`CC[C@H](C1CC1)n1c(=O)c(C)nc2c(-c3cc(F)c(OC)cc3Cl)ccnc21` showed an IC50 [2] of 1.7 nM.

In the case of `CC[C@H](C1CC1)n1c(=O)c(C)nc2c(-c3cc(F)c(OC)cc3C)ccnc21`, the IC50 [2] is reported as 9.4 nM.

In the case of `CCC(C1CC1)n1c(=O)c(C)nc2c(-c3cc(C#N)c(C)cc3Cl)ccnc21` (stereo not given), the IC50 [2] is reported as 4.8 nM.

`CC[C@H](C1CC1)n1c(=O)c(C)nc2c(-c3ccc(OC)cc3C)ccnc21` gave an IC50 [2] of 11 nM.

`CC[C@H](C1CC1)n1c(=O)c(C)nc2c(-c3ccc(OC)nc3C)ccnc21` gave an IC50 [2] of 76 nM.

`CC[C@H](C1CC1)n1c(=O)c(C)nc2c(-c3cc(C)c(OC)cc3C)ccnc21` showed an IC50 [2] of 130 nM.

Molecule `CC[C@H](C1CC1)n1c(=O)c(C)nc2c(-c3cc(C)c(OC)nc3C)ccnc21` has an IC50 [2] of 15 nM.

Molecule `CC[C@@H](C1CC1)n1c(=O)c(C)nc2c(-c3ccc(Cl)cc3Cl)ncnc21` has a fraction unbound [1] of 0.004 and an IC50 [2] of 24 nM.

`CC[C@H](COC)n1c(=O)c(C)nc2c(-c3ccc(Cl)cc3Cl)ncnc21` gave a fraction unbound [1] of 0.022 and an IC50 [2] of 97 nM.

With `CCC(C1CC1)n1c(=O)c(C)nc2c(-c3cc(Cl)c(OC(F)F)cc3C)ncnc21` (stereo not given) the fraction unbound [1] was 0.004 and the IC50 [2] was 38 nM.

`CCC(C1CC1)n1c(=O)c(C)nc2c(-c3ccc(C)cc3C)ccnc21` (racemic) gave an IC50 [2] of 8.8 nM.

`CCC(C1CC1)n1c(=O)c(C)nc2c(-c3cc(C)c(C)cc3C)ccnc21` (racemic) showed an IC50 [2] of 5.2 nM.

In the case of `CCC(C1CC1)n1c(=O)c(C)nc2c(-c3cc(C)c(C)c(C)c3C)ccnc21` (racemic), the IC50 [2] is reported as 340 nM.

`CCC(C1CC1)n1c(=O)c(C)nc2c(-c3cc(C)c(OC)cc3Cl)ccnc21` (racemic) gave a fraction unbound [1] of less than 0.002 and an IC50 [2] of 0.68 nM.

In the case of `CCOc1cc(Cl)c(-c2ccnc3c2nc(C)c(=O)n3C(CC)C2CC2)cc1C` (racemic), the IC50 [2] is reported as 2 nM.

Molecule `CCC(C1CC1)n1c(=O)c(C)nc2c(-c3cc(C)c(OC(C)C)cc3Cl)ccnc21` (racemic) has an IC50 [2] of 15 nM.

With `CCC(C1CC1)n1c(=O)c(C)nc2c(-c3cc(Cl)c(OC(F)F)cc3C)ccnc21` (racemic) the fraction unbound [1] was 0.003 and the IC50 [2] was 9.7 nM.

Molecule `CCC(C1CC1)n1c(=O)c(C)nc2c(-c3cc(F)c(OC)cc3F)ccnc21` (racemic) has an IC50 [2] of 52 nM.

In the case of `CCC(C1CC1)n1c(=O)c(C)nc2c(-c3cc(F)c(N(C)C)cc3Cl)ccnc21` (racemic), the fraction unbound [1] is reported as less than 0.002 and the IC50 [2] is reported as 0.82 nM.

In the case of `CCC(C1CC1)n1c(=O)c(C)nc2c(-c3cc(C)c(Cl)cc3OC)ccnc21` (racemic), the IC50 [2] is reported as 1.1 nM.

Work on `CCC(C1CC1)n1c(=O)c(C)nc2c(-c3cc(Cl)c(OC)cc3OC)ccnc21` (racemic) yielded an IC50 [2] of 3.4 nM.
